# Reference: paper PMC12096834, “Antimicrobial peptide plectasin recombinantly produced in Escherichia coli disintegrates cell walls of gram-positive bacteria, as proven by transmission electron and atomic force microscopy” (Journal of Bacteriology, 2025)
# Experiments:
# Experiment in all cases: Antimicrobial activity assay (broth microdilution MIC)
# Assay type in all cases: cell-based
# [1] = test system: Escherichia coli DSM 1103 (ATCC 25922); conditions: MH broth, 35°C, 18 hours, absorbance 625 nm, three independent tests, plectasin 2–2,048 µg/mL, CASPON-plectasin 16–16,384 µg/mL
# Excerpt: (§1) The test panel included four gram-positive and four gram-negative bacterial strains, which were selected based on EUCAST recommendations and are commonly used in quality control for pathogen testing. Specifically, the test panel comprised the following four gram-positive strains: Staphylococcus aureus DSM 2569 (ATCC 29213), Streptococcus pneumoniae DSM 24048 (ATCC 49619), Listeria monocytogenes DSM 20600 (ATCC 15313), and Enterococcus faecalis DSM 2570 (ATCC 29212). The gram-negative strains included the following: Pseudomonas aeruginosa DSM 1117 (ATCC 27853), Escherichia coli DSM 1103 (ATCC 25922), Escherichia coli BL21(DE3) DSM 102052 (ATCC BAA-1025-B2), and Escherichia coli HMS174 DSM 5932 (ATCC 47011). These strains were obtained from the German Collection of Microorganisms and Cell Cultures GmbH (DSMZ, Leibnitz Institute, Braunschweig, Germany). The strains were maintained in cryo-stocks containing 20% glycerol at a temperature of −80°C. When needed, all gram-negative strains were streaked on MH-agar (Oxoid, Hampshire, UK) and all gram-positive strains on TSYE-agar, with the exception of the Listeria monocytogenes strain, for which BHI-agar was used. All strains were incubated overnight at 35°C.
# (§2) The plates were made fresh on the day of the assay by first adding 50 µL of sterile water (for the gram-positive strains) or PBS buffer pH 7.4 (for the gram-negative strains) into the wells of the first to 11th column of a polystyrene 96-well plate (Greiner, 655161, Kremsmünster, Austria). An ampicillin stock solution (6,400 µg/mL) was prepared and diluted in sterile water to obtain a final ampicillin solution of 64 µg/mL. Purified plectasin, 100 µL of ampicillin solution, CASPON-plectasin, and sterile water for the negative control were each dispensed into two wells of the 12th microtiter plate column and diluted twofold from the 11th to the second column by transferring 50 µL per well of the previous column into the next one (in the end, 50 µL of the 2nd was discarded) to obtain the ranges of 0.064–64 µg/mL for ampicillin, 32–32,768 µg/mL for CASPON-plectasin, and 0.5–512 µg/mL (Streptococcus pneumoniae and Staphylococcus aureus), 1–1,024 µg/mL (Enterococcus faecalis and Listeria monocytogenes), or 4–4,096 µg/mL (gram-negative strains) for plectasin.
# (§3) Bacterial inocula were prepared by suspending colonies from incubated plates described above with 3 mL 0.85% NaCl solution to obtain a turbidity corresponding to McFarland standard 0.5. The inoculated saline suspensions (1–2 × 10^8 CFU/mL) were diluted 1:100 in double concentrated MH- (all gram-negative strains, Staphylococcus aureus, and […]) or MHF- (Streptococcus pneumoniae, Listeria monocytogenes; MH-broth with 5% lysed horse blood and 20 mg/L ß-NAD) broth to obtain approximately […]. Fifty microliters of the diluted inoculum was added to the wells of the prepared microdilution plate, resulting in the final plectasin (0.25–256 µg/mL, 0.5–512 µg/mL, and 2–2,048 µg/mL), CASPON-plectasin (16–16,384 µg/mL), and ampicillin (0.032–32 µg/mL) concentrations and approximately […]. The wells of the negative control were inoculated with sterile double-concentrated MH- or MH-F broth. A schematic illustration of the plate preparation can be found in the supplementary material (Fig. S1). Plates were incubated in ambient air at 35°C for 18 hours. After incubation, the plates were shaken for 1 minute (1,000 rpm) on a platform shaker (Titramax 101, Heidolph, Schwabach, Germany) until obtaining a homogeneous suspension. The absorbances (625 nm) of each well were measured on a Tecan Spark device (Männedorf, Switzerland) and subtracted by the average absorbance of the negative control. […] The variability of the MIC results was evaluated by testing all strains against each agent in three independent assays. […]
# [2] = test system: Escherichia coli HMS174 DSM 5932 (ATCC 47011); conditions: MH broth, 35°C, 18 hours, absorbance 625 nm, three independent tests, plectasin 2–2,048 µg/mL, CASPON-plectasin 16–16,384 µg/mL
# Excerpt: as §1, §2, §3
# [3] = test system: Enterococcus faecalis DSM 2570 (ATCC 29212); conditions: MH broth, approx 5 × 10^4 CFU/well, 35°C, 18 hours, absorbance 625 nm, three independent assays, plectasin 0.5–512 µg/mL, CASPON-plectasin 16–16,384 µg/mL
# Excerpt: as §1, §2, §3
# [4] = test system: Listeria monocytogenes DSM 20600 (ATCC 15313); conditions: MHF broth, approx 5 × 10^4 CFU/well, 35°C, 18 hours, absorbance 625 nm, three independent assays, plectasin 0.5–512 µg/mL, CASPON-plectasin 16–16,384 µg/mL
# Excerpt: as §1, §2, §3
# [5] = test system: Staphylococcus aureus DSM 2569 (ATCC 29213); conditions: 18 hours
# Excerpt: as §1, §2, §3
# [6] = test system: Pseudomonas aeruginosa DSM 1117 (ATCC 27853); conditions: MH broth, 35°C, 18 hours, absorbance 625 nm, three independent tests, plectasin 2–2,048 µg/mL, CASPON-plectasin 16–16,384 µg/mL
# Excerpt: as §1, §2, §3
# [7] = test system: Escherichia coli BL21(DE3) DSM 102052 (ATCC BAA-1025-B2)
# Excerpt: as §1, §2, §3
# [8] = test system: Streptococcus pneumoniae DSM 24048 (ATCC 49619); conditions: 18 hours
# Excerpt: as §1, §2, §3
# [9] = microdilution, extinction at 625 nm, Fig. 3
structure (smiles),measurement,setting,value
"CC[C@H](C)[C@@H]1NC(=O)[C@H](CO)NC(=O)[C@H](CCCCN)NC(=O)[C@@H]2CSSC[C@@H](C(=O)N[C@@H](Cc3ccc(O)cc3)C(=O)O)NC(=O)[C@H](CCCCN)NC(=O)[C@@H]3CSSC[C@H](NC(=O)[C@H](CCC(N)=O)NC(=O)[C@H](CCSC)NC(=O)[C@H](CC(=O)O)NC(=O)[C@H](CC(=O)O)NC(=O)[C@H](CCC(=O)O)NC(=O)[C@H](CC(=O)O)NC(=O)[C@H](Cc4c[nH]c5ccccc45)NC(=O)[C@@H]4CCCN4C(=O)CNC(=O)[C@H](CC(N)=O)NC(=O)[C@@H](NC(=O)CNC(=O)[C@H](Cc4ccccc4)NC(=O)CN)CSSC[C@H](NC(=O)[C@H](Cc4ccc(O)cc4)NC(=O)CNC(=O)CNC(=O)[C@H](CCCCN)NC(=O)[C@H](Cc4ccc(O)cc4)NC(=O)CNC(=O)[C@H](CCCCN)NC1=O)C(=O)N[C@@H](C)C(=O)N[C@@H](CCCCN)C(=O)NCC(=O)NCC(=O)N[C@@H](Cc1ccccc1)C(=O)N[C@@H](C(C)C)C(=O)N3)C(=O)N[C@@H](Cc1c[nH]cn1)C(=O)N[C@@H](CC(N)=O)C(=O)N[C@@H](Cc1c[nH]cn1)C(=O)N2 [Plectasin, plectasin]",growth inhibition (no MIC could be determined),[1],no growth decline
same,growth inhibition (no MIC could be determined),[2],no growth decline
same,MIC,[3],128 µg/mL
same,MIC,[4],32 µg/mL
same,MIC,"[5]; broth microdilution, MH broth, approx 5 × 10^4 CFU/well, 35°C, absorbance 625 nm, three independent assays, plectasin 0.25–256 µg/mL, CASPON-plectasin 16–16,384 µg/mL",32 µg/mL
same,plectasin concentration at which a distinct gradient of extinction reduction was observed,[5]; [9],8 µg/mL
same,growth inhibition (no MIC could be determined),[6],no growth decline
same,growth inhibition (no MIC could be determined),"[7]; broth microdilution, MH broth, 35°C, 18 hours, absorbance 625 nm, three independent tests, plectasin 2–2,048 µg/mL, CASPON-plectasin 16–16,384 µg/mL",no growth decline
same,extinction value at 625 nm (growth) at the highest plectasin concentration,[7]; increased number and altered morphology of cells (Fig. S11),four times higher
same,MIC,"[8]; broth microdilution, MHF broth (5% lysed horse blood, 20 mg/L ß-NAD), approx 5 × 10^4 CFU/well, 35°C, absorbance 625 nm, three independent assays, plectasin 0.25–256 µg/mL, CASPON-plectasin 16–16,384 µg/mL",4 µg/mL
same,plectasin concentration at which a distinct gradient of extinction reduction was observed,[8]; [9],0.5 µg/mL
